Laboratory results taken from publication PMC7897990, “TriTOX: A novel Trichomonas vaginalis assay platform for high-throughput screening of compound libraries” (International Journal for Parasitology: Drugs and Drug …, 2021).
Read-outs that look alike come from different tables or passages of the source. Starred links: 1 amine or outer side, 2 acyl side, 3 side chain; linkers in the order of their positions; H or OH if unused. Positions of bridges follow the written chain, without caps; N, C: chain ends. Non-standard residues stand in square brackets, D forms with d. Residues, ends and D or L forms follow the SMILES beside them. ξ: configuration not given here. *: point of attachment. pTerphenylCO(4''-OnC5H11) = CCCCCOc1ccc(-c2ccc(-c3ccc(C(=O)*)cc3)cc2)cc1; ξOrn(4,5-diOH) = O=C(C(CC(O)C(O)N[*:3])N[*:1])[*:2]; ξhTyr(βξ-OH,γξ-OH) = NC(C(=O)O)C(O)C(O)c1ccc(O)cc1; Aoe = N[C@@H](CCCCCC(=O)[C@@H]1CO1)C(=O)O; ξPro(3ξ-OH,4ξ-Me) = CC1CNC(C(=O)O)C1O; Hyp = O=C(O)[CH]1C[CH](O)CN1; GABA = NCCCC(=O)O

Experiments:
[1] = system: Trichomonas vaginalis G3 trophozoites; details: for T.vaginalis_Absorbance_Rep1: replicate 1, raw absorbance; for T.vaginalis_Absorbance_Rep2: replicate 2, raw absorbance
[2] = system: nontumorigenic neonatal foreskin fibroblast (NFF) cell line
[3] = replicate 1, parasite screen at 1 µg/mL
[4] = replicate 2, parasite screen at 1 µg/mL
[5] = HTS single concentration, parasite screen 1 µg/mL, replicate 1
[6] = HTS single concentration, parasite screen 1 µg/mL, replicate 2
[7] = NFF_NS1 screen 5 µg/mL, single concentration
[8] = HTS replicate 1, parasite screen 1 µg/mL
[9] = HTS replicate 2, parasite screen 1 µg/mL
[10] = NFF fibroblasts, single concentration 5 µg/mL
[11] = HTS, parasite screen at 1 µg/mL, replicate 1
[12] = HTS, parasite screen at 1 µg/mL
[13] = HTS, parasite screen at 1 µg/mL, replicate 2
[14] = parasite screen at 1 µg/mL, replicate 1
[15] = parasite screen at 1 µg/mL, replicate 2
[16] = NFF_NS1 screen at 5 µg/mL, NFF cells
[17] = NFF fibroblast screen at 5 µg/mL, A = active, I = inactive

Cc1cccc(O)c1C(=O)O [BIA-M1655]
T.vaginalis_%inb_Rep1 [1, 3]: 11.00% | T.vaginalis_%inb_Rep2 [1, 4]: 14.69% | NFF_Activity ([2]; NFF cells, screen at 5 µg/mL): I (otherwise these were reported as inactive (I))

C[C@@H]1NC(=O)[C@H](CCCCCC(=O)[C@@H]2CO2)NC(=O)[C@H]2CCCN2C(=O)[C@H](Cc2ccccc2)NC1=O [BIA-A1402] (cyclo(AF[dP][Aoe]))
T.vaginalis_%inb_Rep1 [1, 5]: 64.03% | T.vaginalis_%inb_Rep2 [1, 6]: 94.29% | NFF_Activity [2, 7]: I (otherwise these were reported as inactive (I))

C[C@@H]1CC[C@H](O)/C=C/C(=O)O[C@H](C)CC[C@H](O)/C=C/C(=O)O1 [Pyrenophorol]
T.vaginalis_%inb_Rep1 [1, 8]: 10.44% | T.vaginalis_%inb_Rep2 [1, 9]: 11.15% | NFF_Activity [2, 10]: I (otherwise these were reported as inactive (I))

CC[C@H]1OC(=O)[C@H](C)[C@@H](O[C@H]2C[C@@](C)(OC)[C@@H](O)[C@H](C)O2)[C@H](C)[C@@H](O[C@@H]2O[C@H](C)C[C@H]([N+](C)(C)[O-])[C@H]2O)[C@](C)(O)C[C@@H](C)C(=O)[C@H](C)[C@@H](O)[C@]1(C)O [Erythromycin A N-oxide]
T.vaginalis_%inb_Rep1 [1, 11]: 6.03% | T.vaginalis_Absorbance_Rep1 [1, 12]: 0.821 | T.vaginalis_%inb_Rep2 [1, 13]: 9.83% | T.vaginalis_Absorbance_Rep2 [1, 12]: 0.756 | NFF_Activity ([2]; NFF_NS1 screen at 5 µg/mL): I (otherwise these were reported as inactive (I))

C=C(C)[C@@H]1CC[C@]2(C(=O)OC)CC[C@]3(C)[C@H](CC[C@@H]4[C@@]5(C)CC[C@H](O)C(C)(C)[C@@H]5CC[C@]43C)[C@@H]12 [BIA-M1757]
T.vaginalis_%inb_Rep1 [1, 5]: 14.81% | T.vaginalis_%inb_Rep2 [1, 6]: 16.56% | NFF_Activity [2, 7]: I (otherwise these were reported as inactive (I))

CC[C@H]1OC(=O)[C@H](C)[C@@H](O[C@H]2C[C@@](C)(O)[C@@H](O)[C@H](C)O2)[C@H](C)[C@@H](O[C@@H]2O[C@H](C)C[C@H](N(C)C)[C@H]2O)[C@](C)(O)C[C@@H](C)C(=O)[C@H](C)[C@@H](O)[C@]1(C)O [Erythromycin C]
T.vaginalis_%inb_Rep1 [1, 11]: 5.17% | T.vaginalis_Absorbance_Rep1 [1, 12]: 0.805 | T.vaginalis_%inb_Rep2 [1, 13]: 6.87% | T.vaginalis_Absorbance_Rep2 [1, 12]: 0.715 | NFF_Activity ([2]; NFF_NS1 screen at 5 µg/mL): I (otherwise these were reported as inactive (I))

C[C@@H](O)[C@H]1C(=O)N2C(C(=O)[O-])=C(SC3Cn4cnc[n+]4C3)[C@H](C)[C@H]12 (stereo partly drawn) [BIA-B1663]
T.vaginalis_%inb_Rep1 [1, 5]: 15.29% | T.vaginalis_%inb_Rep2 [1, 6]: 20.32% | NFF_Activity [2, 7]: I (otherwise these were reported as inactive (I))

CO[C@H]1C[C@@H]2CC[C@@H](C)[C@@](O)(O2)C(=O)C(=O)N2CCCC[C@H]2C(=O)O[C@H]([C@H](C)C[C@@H]2CC[C@@H](OP(C)(C)=O)[C@H](OC)C2)CC(=O)[C@H](C)/C=C(\C)[C@@H](O)[C@@H](OC)C(=O)[C@H](C)C[C@H](C)/C=C/C=C/C=C/1C [BIA-R1450]
T.vaginalis_%inb_Rep1 [1, 14]: 8.81% | T.vaginalis_%inb_Rep2 [1, 15]: 19.01% | NFF_Activity [2, 16]: I (otherwise these were reported as inactive (I))

CC(C)[C@H]1NC(=O)[C@H](Cc2ccccc2)NC(=O)[C@@H](C(C)C)NC(=O)[C@@H](C)NC(=O)CCCNC(=O)[C@@H](Cc2c[nH]c3ccccc23)NC(=O)[C@@H](C)NC1=O [Unguisin A] (cyclo(F[dV][dA][dW][GABA][dA][dV]))
T.vaginalis_%inb_Rep1 [1, 11]: 9.07% | T.vaginalis_%inb_Rep2 [1, 13]: 14.50% | NFF_Activity [2, 17]: I (otherwise these were reported as inactive (I))

CC1=C[C@H](O/C=C2/C(=O)O[C@@H]3c4ccccc4C[C@H]23)OC1=O [GR24]
T.vaginalis_%inb_Rep1 [1, 11]: 14.00% | T.vaginalis_Absorbance_Rep1 [1, 12]: 0.978 | T.vaginalis_%inb_Rep2 [1, 13]: 4.49% | T.vaginalis_Absorbance_Rep2 [1, 12]: 0.705 | NFF_Activity ([2]; NFF_NS1 screen at 5 µg/mL): I (otherwise these were reported as inactive (I))

Orfamide A
T.vaginalis_%inb_Rep1 [1, 8]: 9.99% | T.vaginalis_%inb_Rep2 [1, 9]: 10.90% | NFF_Activity [2, 10]: I (otherwise these were reported as inactive (I))

COc1ccc2[nH]c3c(C)c4ccncc4c(C)c3c2c1 [BIA-M1952]
T.vaginalis_%inb_Rep1 [1, 3]: 5.30% | T.vaginalis_%inb_Rep2 [1, 4]: 7.25% | NFF_Activity ([2]; NFF cells, screen at 5 µg/mL): A (active (A) compounds having >25% inhibitory activity)

CC(=O)OC[C@]12C[C@H](O)C(C)=C[C@H]1O[C@@H]1[C@H](O)[C@@H](OC(C)=O)[C@@]2(C)[C@]12CO2 [Neosolaniol]
T.vaginalis_%inb_Rep1 [1]: 8.23% | T.vaginalis_%inb_Rep2 [1]: 6.22% | NFF_Activity [2]: I (key: active (A) compounds having >25% inhibitory activity; otherwise these were reported as inactive (I))

CO[C@H]1C[C@@H]2CC[C@@H](C)[C@@](O)(O2)C(=O)C(=O)N2CCCC[C@H]2C(=O)O[C@H]([C@H](C)C[C@@H]2CC[C@@H](OC(=O)C(C)(CO)CO)[C@H](OC)C2)CC(=O)[C@H](C)/C=C(\C)[C@@H](O)[C@@H](OC)C(=O)[C@H](C)C[C@H](C)/C=C/C=C/C=C/1C [BIA-T1386]
T.vaginalis_%inb_Rep1 [1, 14]: 7.60% | T.vaginalis_%inb_Rep2 [1, 15]: 9.14% | NFF_Activity [2, 16]: I (otherwise these were reported as inactive (I))

CN(C)[C@@H]1C(O)=C(C(=O)NCN2CCCC2)C(=O)[C@@]2(O)C(O)=C3C(=O)c4c(O)cccc4[C@@](C)(O)[C@H]3C[C@@H]12 [BIA-R1460]
T.vaginalis_%inb_Rep1 [1, 14]: 13.95% | T.vaginalis_%inb_Rep2 [1, 15]: 12.12% | NFF_Activity [2, 16]: I (otherwise these were reported as inactive (I))

Nc1ncnc2c1ncn2[C@@H]1O[C@H](C[C@@H](N)CC[C@H](N)C(=O)O)[C@@H](O)[C@H]1O [BIA-S1376]
T.vaginalis_%inb_Rep1 [1, 14]: 11.43% | T.vaginalis_%inb_Rep2 [1, 15]: 25.29% | NFF_Activity [2, 16]: I (otherwise these were reported as inactive (I))

[N-]=[N+]=NCC(=O)N[C@H](CO)[C@H](O)c1ccc([N+](=O)[O-])cc1 [BIA-A1485]
T.vaginalis_%inb_Rep1 [1, 5]: 12.55% | T.vaginalis_%inb_Rep2 [1, 6]: 16.12% | NFF_Activity [2, 7]: I (otherwise these were reported as inactive (I))

CCOCCO[C@@H]1CC[C@@H](C[C@@H](C)[C@@H]2CC(=O)[C@H](C)/C=C(\C)[C@@H](O)[C@@H](OC)C(=O)[C@H](C)C[C@H](C)/C=C/C=C/C=C(\C)[C@@H](OC)C[C@@H]3CC[C@@H](C)[C@@](O)(O3)C(=O)C(=O)N3CCCC[C@H]3C(=O)O2)C[C@H]1OC [Umirolimus]
T.vaginalis_%inb_Rep1 [1, 11]: 9.81% | T.vaginalis_%inb_Rep2 [1, 13]: 13.47% | NFF_Activity [2, 17]: I (otherwise these were reported as inactive (I))

COC1=CC(C)=CC(C)C(O)C(C)CC(C)=CC=CC(OC)C(C(C)C(O)C(C)C2(O)CC(O)C(C)C(C(C)C)O2)OC1=O (stereo not drawn) [BIA-B1012]
T.vaginalis_%inb_Rep1 [1, 5]: 15.99% | T.vaginalis_%inb_Rep2 [1, 6]: 16.70% | NFF_Activity [2, 7]: I (otherwise these were reported as inactive (I))

C=CC1(C)CC(OC(=O)CSC2CC3CCC(C2)N3C)C2(C)C(C)CCC3(CCC(=O)C32)C(C)C1O (stereo not drawn) [BIA-R1491]
T.vaginalis_%inb_Rep1 [1, 14]: 10.45% | T.vaginalis_%inb_Rep2 [1, 15]: 11.55% | NFF_Activity [2, 16]: I (otherwise these were reported as inactive (I))

CCC1OC(=O)CC(O)C(C)C(OC2OC(C)C(O)C(N(C)C)C2O)C(CCN2CC(C)CC(C)C2)CC(C)C(=O)C=CC(C)=CC1COC1OC(C)C(O)C(OC)C1OC.O=P(O)(O)O (stereo not drawn) [Tilmicosin phosphate]
T.vaginalis_%inb_Rep1 [1, 11]: 8.60% | T.vaginalis_%inb_Rep2 [1, 13]: 12.37% | NFF_Activity [2, 17]: I (otherwise these were reported as inactive (I))

O=C1NCc2nc3ccccc3c(=O)n2-c2ccccc21 [BIA-S1678]
T.vaginalis_%inb_Rep1 [1, 14]: 10.85% | T.vaginalis_%inb_Rep2 [1, 15]: 12.61% | NFF_Activity [2, 16]: I (otherwise these were reported as inactive (I))

CN[C@@H]1C[C@H]2O[C@@](C)([C@@H]1OC)n1c3ccccc3c3c4c(c5c6ccccc6n2c5c31)C(=O)NC4=O [BIA-O1137]
T.vaginalis_%inb_Rep1 [1, 5]: 63.59% | T.vaginalis_%inb_Rep2 [1, 6]: 75.50% | NFF_Activity [2, 7]: A (active (A) compounds having >25% inhibitory activity)

O=c1cc(CO)occ1O [BIA-K1696]
T.vaginalis_%inb_Rep1 [1, 3]: 13.34% | T.vaginalis_%inb_Rep2 [1, 4]: 13.98% | NFF_Activity ([2]; NFF cells, screen at 5 µg/mL): I (otherwise these were reported as inactive (I))

C=CC(C)(C)C12CC3C(=O)N4C(CC5(C(C)(C)C=C)c6ccccc6NC45)C(=O)N3C1Nc1ccccc12 (stereo not drawn) [BIA-A1631]
T.vaginalis_%inb_Rep1 [1, 5]: 14.16% | T.vaginalis_%inb_Rep2 [1, 6]: 13.96% | NFF_Activity [2, 7]: I (otherwise these were reported as inactive (I))

CC(=O)O[C@@H]1C[C@]2(C)[C@@]3(CO)[C@H](O)C(=O)C(C)=C[C@H]3O[C@H]1[C@@]21CO1 [BIA-A1925]
T.vaginalis_%inb_Rep1 [1, 5]: 9.96% | T.vaginalis_%inb_Rep2 [1, 6]: 14.14% | NFF_Activity [2, 7]: I (otherwise these were reported as inactive (I))

CCCCCOc1ccc(-c2ccc(-c3ccc(C(=O)NC4CC(O)C(O)NC(=O)C5C(O)C(C)CN5C(=O)C(C(C)O)NC(=O)C(C(O)C(O)c5ccc(O)cc5)NC(=O)C5CC(O)CN5C(=O)C(C(C)O)NC4=O)cc3)cc2)cc1 (stereo not drawn) [BIA-A1423] ({pTerphenylCO(4''-OnC5H11)}-[ξOrn(4,5-diOH)]T[Hyp][ξhTyr(βξ-OH,γξ-OH)]T[ξPro(3ξ-OH,4ξ-Me)]; lactam 1-C; configuration not given here)
T.vaginalis_%inb_Rep1 [1, 5]: 14.75% | T.vaginalis_%inb_Rep2 [1, 6]: 12.08% | NFF_Activity [2, 7]: I (otherwise these were reported as inactive (I))

CO[C@H]1C[C@@H]2CC[C@@H](C)[C@@](O)(O2)C(=O)C(=O)N2CCCC[C@H]2C(=O)O[C@H]([C@H](C)C[C@@H]2CC[C@@H](O)[C@H](OC)C2)CC(=O)[C@H](C)/C=C(\C)[C@@H](O)[C@@H](OC)C(=O)[C@H](C)C[C@H](C)/C=C/C=C/C=C/1C [BIA-R1183]
T.vaginalis_%inb_Rep1 [1, 14]: 10.28% | T.vaginalis_%inb_Rep2 [1, 15]: 12.55% | NFF_Activity [2, 16]: I (otherwise these were reported as inactive (I))
